Measurements from patent EP4578449A1, “PHARMACEUTICAL COMBINATION OF FAK INHIBITOR AND MICROTUBULE INHIBITOR AND USE THEREOF” (Inxmed (Nanjing) Co., Ltd., priority 2022, dated 2024).

Columns and labels:
[1] = test system: mouse colon cancer CT26 cells; assay: Docetaxel/Eribulin/Paclitaxel and Defactinib: microscopy and CRT/Annexin-V/PI flow cytometry; assay type: cell-based; conditions: 48 hours, Defactinib 5 µM, Docetaxel 0.3 µM, Eribulin 0.3 µM, Paclitaxel 6 µM, alone or combined with Defactinib
Procedure: (§1) CT26 cells were cultured in monolayer in vitro under the following conditions: RPMI-1640 medium with 10% fetal bovine serum, 37°C, 5% CO2. Trypsin was used for routine digestion and passage treatment two to three times a week. When the cells were in the exponential growth phase and the adherent confluence reached 80%-90%, the cells were harvested and plated.
(§2) CT26 cells were digested with trypsin, and then the cells were collected and counted. Based on the counting results, the cells were diluted with the corresponding complete culture medium to a concentration of 50,000 cells per milliliter. Then the cells were plated in 12-well cell culture plates, with 2 ml of cell suspension per well, i.e., 100,000 cells.
(§3) After plating, the cells were cultured in a 37°C and 5% CO2 incubator.
After 24 hours of plating, the test compounds Docetaxel, Eribulin, Paclitaxel and Defactinib were added to different wells, respectively.
(§4) After 48 hours of drug action, the cells were photographed using a microscope, and then trypsinized and collected for flow cytometry staining.
(§5) The cells were washed twice with flow buffer (DPBS + 2% FBS). 0.5 µL of AF647 Anti-Calreticulin Antibody was added to each well, and mixed well. The cells were incubated at 4°C in the dark for 20 min. After washing once with flow buffer, 195 µL of Annexin-V-FITC binding solution was added, and the cells were gently mixed well. 5 µL of Annexin-V-FITC antibody was added. After further mixing, 10 µL of PI dye was added and mixed well. The cells were incubated at room temperature in the dark for 15 min. The cells were then subjected to flow cytometry.
(§6) After the assay, the cell positive rate was analyzed by Flowjo (V10) software.

breast cancer 4T1 cells = assay: Subcutaneous allograft tumor model of breast cancer 4T1 cells in BALB/c mice; assay type: in vivo
Text: Mice: Female BALB/c mice aged 6-8 weeks were purchased from SHANGHAI SLAC LABORATORY ANIMAL CO. LTD. The assay began after the animals were adapted to the assay environment upon arrival. The animals were kept in IVC (independent ventilation system) cages (5 per cage) in an SPF animal room. All cages, padding and drinking water must be sterilized before use. All assay personnel should wear protective clothing and latex gloves when operating in the animal room. Cages, feed and drinking water were replaced twice a week. The feeding environment and lighting conditions were as follows: • Temperature: 20-26 °C • Humidity: 40-70% • Lighting period: 12 hours light, 12 hours no light • Cages: Made of polycarbonate, 300 mm × 180 mm × 150 mm. The padding was corn cobs, which was replaced twice a week. • Food: The assay animals had free access to food (dry pelleted food sterilized by irradiation) throughout the assay period. • Drinking water: Assay animals were free to drink sterile water. • Cage identification: The animal information card for each cage should indicate the number of animals in the cage, gender, strain, receipt date, dosing regimen, assay number, group and start date of the assay. • Animal identification: Assay animals were identified with ear tags.
Breast cancer cell 4T1 (source: Nanjing Cobioer Biotechnology Co., Ltd., catalog number: CBP60352) was maintained and passaged by INXMED (Nanjing) Co., Ltd. The cells were cultured in a monolayer in vitro in RPMI-1640 medium with 10% fetal bovine serum in a 37 °C, 5% CO2 incubator. Trypsin-EDTA was used for routine digestion and passage treatment two to three times a week. When the cells were in the exponential growth phase and the adherent confluence reached 80%-90%, the cells were harvested and plated.
0.1 mL of cell suspension containing 2 x 10^5 cells was subcutaneously inoculated on the right back of each mouse. When the tumor volume reached ~52 mm^3 (10th day after cell inoculation), the mice were randomly divided into groups for drug administration according to the tumor volume. Table 9. Dosing regimen of the test substance in 4T1 mouse transplant tumor model
The formulation and any modifications of this assay protocol had been assessed and approved by the IACUC of ArrayBridge. The use and welfare of assay animals were carried out in accordance with AAALAC regulations. The health status and mortality of animals were monitored daily, with routine checks including observation of tumor growth and the impact of drug treatment on the animals' daily behavior, such as activity, food and water intake (estimated by visual inspection), changes in body weight, physical signs, or any other abnormalities. The number of animal deaths and side effects in each group were recorded based on the number of animals in each group.
If the animal's health condition continued to deteriorate, or if the tumor volume exceeded 3,000 mm^3, or there was a serious disease or pain, euthanasia should be carried out. In the following cases, the veterinarian was notified and euthanasia was performed: obvious weight loss, i.e., weight loss greater than 20%; inability to freely eat and drink; the average tumor volume of the control group reached 2000 mm^3, the assay was terminated.
Tumor diameters were measured three times a week using calipers. The tumor volume was calculated using the formula: V = 0.5 × a × b^2, where a and b represent the long and short diameters of the tumor, respectively.
Based on the tumor volume on the first day after grouping, the tumor growth inhibition rate TGI (%) was calculated according to the following formula: TGI (%) = [1 - (average tumor volume of a treatment group - average tumor volume of the treatment group at the beginning of treatment) / (average tumor volume of the solvent control group - average tumor volume of the solvent control group at the beginning of treatment)] × 100%. […]

colon cancer CT26 cells = assay: IN10018 and Docetaxel: microscopy and CRT/Annexin-V/PI flow cytometry; assay type: cell-based, mouse; conditions: 48 hours, IN10018 5 µM, Docetaxel 0.1 µM, alone or combined
Procedure: CT26 cells (Institute of Cell Biology, Chinese Academy of Sciences) were cultured with RPMI-1640 (Shanghai Basalmedia, catalog number: L210KJ, batch number: F210916) + 10% FBS (Gibco, catalog number: 10099-141c, batch number: 2158737cp), and passaged twice. When the cells were in good condition, they were placed in a 24-well plate. After 24 hours of cell spreading, four groups were set up. The first group was the control group, in which culture medium was added; the second group was IN10018 at a concentration of 5µM; the third group was Docetaxel (MCE, classification number: HY-B0011, batch number: 111613) with a concentration of 0.1µM; and the fourth group was the combination group of IN10018 (5 µM) and Docetaxel (0.1µM). The drugs were mixed and cultured in a 5 % CO2 incubator at 37°C for 48 hours.
After 48 hours of drug action, the cells were observed and photographed under a microscope. The photos were saved. Then the cells were collected for flow cytometry, and the cells were washed twice with flow buffer (PBS + 2% FBS). 0.5 µl of AF647 anti-calreticulin antibody (abcam, catalog number: ab196159, batch number: CR33676773) was added to each well, and fully mixed. The cells were incubated at 4 °C for 20 minutes in the dark. […] The mixture was incubated at room temperature in the dark for 15 minutes, and then analyzed on a flow cytometer.

[2] = test system: mouse breast cancer 4T1 cells; assay: Eribulin and IN10018: microscopy and CRT/Annexin-V/PI and GRP94 flow cytometry; assay type: cell-based; conditions: 48 hours, IN10018 5 µM, Eribulin 0.15 µM or 0.45 µM, alone or combined
Procedure: as §1, with “4T1” for “CT26”, “37 °C,” for “37°C,”
4T1 cells were digested with trypsin and then collected and counted. Based on the counting results, the cells were diluted with RPMI-1640+10% FBS to a concentration of 50,000 cells per milliliter. Then the cells were plated in 12-well cell culture plates, with 2 ml of cell suspension per well, i.e., 100,000 cells. After plating, the cells were cultured in a 37°C and 5% CO2 incubator.
(§7) After 24 hours of plating, test compounds IN10018 and Eribulin were added to different wells, respectively.
as §4
The cells were washed twice with flow buffer (DPBS + 2% FBS), and each group of cells was divided into two equal parts. In one part, 0.5 µL of AF647 Anti-Calreticulin Antibody was added to each well, and mixed. The cells were incubated at 4°C in the dark for 20 min. […]
as §6

[3] = test system: human ovarian epithelial carcinoma TOV-21G cells; assay: Eribulin and IN10018: microscopy and CRT/Annexin-V/PI flow cytometry; assay type: cell-based; conditions: 48 hours, IN10018 10 µM, Eribulin 0.045 µM, alone or combined
Procedure: (§8) ID8 cells and TOV-21G cells were cultured in monolayer in vitro. ID8 cells were cultured in DMEM medium with 10% fetal bovine serum. TOV-21G cells were cultured in RPMI-1640 medium with 10% fetal bovine serum. Both were cultured in a 37 °C, 5% CO2 incubator. Trypsin was used for routine digestion and passage treatment two to three times a week. When the cells were in the exponential growth phase and the adherent confluence reached 80%-90%, the cells were harvested and plated.
as §2, with “ID8 cells and TOV-21G” for “CT26”, “trypsin” for “trypsin,”, “then” for “then the cells were”
as §3, §7, §4
as §5, with “well, and mixed. The cells” for “well, and mixed well. The cells”
as §6

[4] = test system: mouse ovarian epithelial carcinoma ID8 cells; assay: as above; assay type: cell-based; conditions: 48 hours, IN10018 10 µM, Eribulin 0.045 µM, alone or combined
Procedure: as §8
as §2, with “ID8 cells and TOV-21G” for “CT26”, “trypsin” for “trypsin,”, “then” for “then the cells were”
as §3, §7, §4
as §5, with “well, and mixed. The cells” for “well, and mixed well. The cells”
as §6

Structure (SMILES): CC(=O)O[C@H]1C(=O)[C@@]2(C)[C@H]([C@H](OC(=O)c3ccccc3)[C@]3(O)C[C@H](OC(=O)[C@H](O)[C@@H](NC(=O)c4ccccc4)c4ccccc4)C(C)=C1C3(C)C)[C@]1(OC(C)=O)CO[C@@H]1C[C@@H]2O [Paclitaxel]
- cell status (cell death) under a microscope [1]: obvious

Structure (SMILES): Cc1c(C=Cc2cc(CNC(C)(CO)C(=O)O)ccc2C(F)(F)F)cccc1-c1ccc2c(c1)OCCO2 (stereo not drawn) [MAX10181]
- Tumor volume on day 0 (breast cancer 4T1 cells; baseline at grouping (10th day after inoculation), mean ± standard error, 6 mice per group): 51.7 ± 13.9 mm^3
- TGI (breast cancer 4T1 cells; day 21 after administration, vs control group, DTX 10 mg/kg i.p. BIW, IN10018 25 mg/kg p.o. QD, MAX10181 120 mg/kg p.o. BID): -3.7%
- Tumor volume on day 21 (breast cancer 4T1 cells; day 21 after administration, DTX 10 mg/kg i.p. BIW, IN10018 25 mg/kg p.o. QD, MAX10181 120 mg/kg p.o. BID, mean ± standard error): 2205.7 ± 912.7 mm^3
- death of animals (breast cancer 4T1 cells; entire dosing cycle (21 days), 6 mice per group, deaths following diarrhea, MAX10181 120 mg/kg p.o. BID, DTX 10 mg/kg i.p. BIW): one

Structure (SMILES): COc1cc(C(=O)NC2CCN(C)CC2)c(F)cc1Nc1ncc(C(F)(F)F)c(Oc2cccc3c2C(=O)N(C)C3)n1 [IN10018]
- cell status under a microscope (colon cancer CT26 cells): good
- cell status (cell death / cell viability) under a microscope [2]: better
- cell status (cell death / cell viability) under a microscope [3]: better
- cell status (cell death / cell viability) under a microscope [4]: better
